Experimental data: US10681908B2, “Molecules having pesticidal utility, and intermediates, compositions, and processes, related thereto” (Dow AgroSciences LLC, priority 2016, dated 2020)

Experiments:
Assay type in all cases: in vivo
[1] = tested on: Beet Armyworm (Spodoptera exigua, LAPHEG); assay: Bioassay on Beet Armyworm (BAW), 128-well diet tray assay; details: 168 h, 50 μg/cm^2 on artificial diet, second instar larvae, five to seven days, 25° C., read-out: BAW % Control (or Mortality) rating
Outline: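 Mortality of second-instar larvae (one to five per well) was scored after five to seven days at 25 °C under 14:10 light-dark and averaged across eight wells. Each well's diet had received 50 μg/cm^2 test molecule from a 90:10 acetone-water solution, allowed to dry before infestation.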

[2] = tested on: Yellow Fever Mosquito (Aedes aegypti, AEDSAE); details: about 1 day-old larvae, 3 days, room temperature, scored on mortality
Outline: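 Compounds from DMSO master plates (4000 ppm stock) diluted with 90:10 water:acetone, then about 1-day-old larvae in liver-powder water added. Held covered at room temperature for 3 days; each well scored for mortality.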

[3] = tested on: Cabbage Looper (Trichoplusia ni, TRIPNI); assay: Bioassay on Cabbage Looper (CL), 128-well diet tray assay; details: 168 h, 50 μg/cm^2 on artificial diet, second instar larvae, five to seven days, 25° C., read-out: CL % Control (or Mortality) rating
Outline: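 Percent mortality, averaged over eight wells, scored after five to seven days at 25° C. under 14:10 light-dark. Each well held 1–5 second-instar larvae on artificial diet treated with 50 μg/cm^2 test molecule applied in 90:10 acetone-water and dried.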

[4] = tested on: Green Peach Aphid (Myzus persicae, MYZUPE); assay: Bioassay on Green Peach Aphid (GPA), foliar spray on infested cabbage seedlings; details: 72 h, 200 ppm foliar spray, three days, Abbott corrected % control, read-out: GPA % Control (or Mortality) rating
Protocol: Example B: Bioassays on Green Peach Aphid (Myzus Persicae, MYZUPE) (“GPA”)
Certain molecules disclosed in this document were tested against GPA using procedures described in the following example. In the reporting of the results, the “GPA & YFM Rating Table” was used (See Table Section).
Cabbage seedlings grown in 3-inch pots, with 2-3 small (3-5 cm) true leaves, were used as test substrate. The seedlings were infested with 20-50 GPA (wingless adult and nymph stages) one day prior to chemical application. Four pots with individual seedlings were used for each treatment. Test molecules (2 mg) were dissolved in 2 mL of acetone/methanol (1:1) solvent, forming stock solutions of 1000 ppm test molecule. The stock solutions were diluted 5× with 0.025% Tween 20 in water to obtain the solution at 200 ppm test molecule. A hand-held aspirator-type sprayer was used for spraying a solution to both sides of […] leaves until runoff. Reference plants (solvent check) were sprayed with the diluent only containing 20% by volume of acetone/methanol (1:1) solvent. Treated plants were held in a holding room for three days at approximately 25° C. and ambient relative humidity (RH) prior to grading. Evaluation was conducted by counting the number of live aphids per plant under a microscope. Percent Control was measured by using Abbott's correction formula (W. S. Abbott, “A Method of Computing the Effectiveness of an Insecticide” J. Econ. Entomol. 18 (1925), pp. 265-267) as follows. Corrected % Control=100*(X−Y)/X • where • X=No. of live aphids on solvent check plants and • Y=No. of live aphids on treated plants

SMILES | mortality at 50 µg/cm2 [1] | YFM % Control (or Mortality) rating [2] | mortality at 50 µg/cm2 [3] | mortality at 200 ppm [4]
C[C@H](CS(=O)(=O)CC(F)(F)F)NC(=O)c1ccc(/C(F)=C/C(c2cc(Br)c(Cl)c(Br)c2)C(F)(F)F)cc1C(F)(F)F (stereo partly drawn) [F22, 4-((Z)-3-(3,5-Dibromo-4-chlorophenyl)-1,4,4,4-tetrafluorobut-1-en-1-yl)-N—((R)-1-((2,2,2-trifluoroethyl)sulfonyl)propan-2-yl)-2-(trifluoromethyl)benzamide] | 50 to 100% | A (80-100) | 50 to 100% | 0 to 80%
C[C@H](CS(=O)(=O)CCC#N)NC(=O)c1ccc(/C(F)=C/C(c2cc(Cl)c(Cl)c(Cl)c2)C(F)(F)F)cc1C(F)(F)F (stereo partly drawn) [F123, N—((R)-1-((2-cyanoethyl)sulfonyl)propan-2-yl)-4-((Z)-1,4,4,4-tetrafluoro-3-(3,4,5-trichlorophenyl)but-1-en-1-yl)-2-(trifluoromethyl)benzamide] | 50 to 100% | A (80-100) | 50 to 100% | 0%
C[C@H](CSCC(F)(F)F)NC(=O)c1ccc(/C(F)=C/C(c2cc(Br)c(Cl)c(Br)c2)C(F)(F)F)cc1C(F)(F)F (stereo partly drawn) [F21, 4-((Z)-3-(3,5-Dibromo-4-chlorophenyl)-1,4,4,4-tetrafluorobut-1-en-1-yl)-N—((R)-1-((2,2,2-trifluoroethyl)thio)propan-2-yl)-2-(trifluoromethyl)benzamide] | 50 to 100% | A (80-100) | 50 to 100% | 80 to 100%
C[C@H](C[S+]([O-])CC(F)(F)F)NC(=O)c1ccc(/C(F)=C/C(c2cc(Cl)cc(Br)c2)C(F)(F)F)cc1C(F)(F)F (stereo partly drawn) [F68, 4-((Z)-3-(3-Bromo-5-chlorophenyl)-1,4,4,4-tetrafluorobut-1-en-1-yl)-N-((2R)-1-((2,2,2-trifluoroethyl)sulfinyl)propan-2-yl)-2-(trifluoromethyl)benzamide] | 50 to 100% | A (80-100) | 50 to 100% | 0 to 80%
C[C@H](CS(=O)(=O)CC(F)(F)F)NC(=O)c1ccc(/C(F)=C/C(c2cc(Br)cc(Br)c2)C(F)(F)F)cc1C(F)(F)F (stereo partly drawn) [F69, 4-((Z)-3-(3,5-Dibromophenyl)-1,4,4,4-tetrafluorobut-1-en-1-yl)-N—((R)-1-((2,2,2-trifluoroethyl)sulfonyl)propan-2-yl)-2-(trifluoromethyl)benzamide] | 50 to 100% | A (80-100) | 50 to 100% | 0 to 80%
C[C@H](CS(=O)(=O)CC(F)(F)F)NC(=O)c1ccc(/C(F)=C/C(c2ccc(F)c(Cl)c2)C(F)(F)F)cc1C(F)(F)F (stereo partly drawn) [PF2, 4-((Z)-3-(3-Chloro-4-fluorophenyl)-1,4,4,4-tetrafluorobut-1-en-1-yl)-N—((R)-1-((2,2,2-trifluoroethyl)sulfonyl)propan-2-yl)-2-(trifluoromethyl)benzamide] | 50 to 100% | B (More than 0-Less than 80) | 50 to 100% | 0 to 80%
